From patent US8394967B2, “Antioxidant inflammation modulators: C-17 homologated oleanolic acid derivatives” (Reata Pharmaceuticals, Inc., priority 2008, dated 2013)

Tests used:
[1] = tested on: RAW264.7 macrophages; assay: Cell viability of RAW264.7 macrophages (WST-1 reagent); format: cell-based, mouse; settings: Mus musculus, RAW264.7, 24 h, cell viability, RAW264.7, 20 ng/ml IFNγ 24 hours, WST-1 reagent; read-out: RAW264.7 (20 ng/ml IFNγ) WST-1 IC50
Protocol: (§1) FIGS. 1-4, 6 and 8. Inhibition of NO Production. RAW264.7 macrophages were pre-treated with DMSO or drugs at various concentrations (nM) for 2 hours, then treated with 20 ng/ml IFNγ for 24 hours. NO concentration in media was determined using a Griess reagent system; cell viability was determined using WST-1 reagent.
(§2) Nitric Oxide production and cell viability. RAW264.7 macrophages were pre-treated with DMSO or drugs for 2 hours, then treated with recombinant mouse IFNγ (Sigma) for 24 hours. NO concentration in media was determined using the Griess reagent system (Promega). Cell viability was determined using WST-1 reagent (Roche).

[2] = tested on: NQO1; assay: Nrf2 target gene induction, MDA-MB-435 (qPCR): NQO1; format: cell-based; settings: Homo sapiens; MDA-MB-435, 250 nM, 16 hours, mRNA by qPCR
[3] = tested on: NO production in RAW264.7 macrophages; assay: Inhibition of NO production in IFNγ-treated RAW264.7 macrophages (Griess reagent); format: cell-based, mouse; settings: Mus musculus, RAW264.7, RAW264.7 macrophages pre-treated 2 hours, then 20 ng/ml IFNγ for 24 hours
Protocol: as §1, §2

[4] = tested on: HO-1; assay: Nrf2 target gene induction, MDA-MB-435 (qPCR): HO-1; format: cell-based; settings: Homo sapiens; MDA-MB-435, 250 nM, 16 hours, mRNA by qPCR
Protocol: (§3) Nrf2 target gene induction. MDA-MB-435 human melanoma cells were treated with vehicle (DMSO) or the indicated compounds and concentrations for 16 hours. HO-1, thioredoxin reductase-1 (TrxR1), γ-glutamylcysteine synthetase (γ-GCS), and ferritin heavy chain mRNA levels were quantified using qPCR and were normalized relative to a DMSO-treated sample run in parallel. Values are averages of duplicate wells. Primer sequences are as follows.

[5] = tested on: γ-GCS; assay: Nrf2 target gene induction, MDA-MB-435 (qPCR): γ-GCS; format: cell-based; settings: Homo sapiens; MDA-MB-435, 250 nM, 16 hours, mRNA by qPCR
Protocol: as §3

Row | SMILES | IC50 [1] [nM] | fold induction at 0.25 µM [2] | IC50 [3] [nM] | fold induction at 0.25 µM [4] | fold induction at 0.25 µM [5]
1 | CC1(C)CC[C@]2(CN)CC[C@]3(C)[C@H](C(=O)C[C@@H]4[C@@]5(C)C=C(C#N)C(=O)C(C)(C)[C@@H]5CC[C@]43C)[C@@H]2C1 [Compound 63214, (6aR,6bR,8aS,12aS,12bR,14bR)-8a-(aminomethyl)-4,4,6a,6b,11,11,14b-heptamethyl-3,13-dioxo-3,4,4a,5,6,6a,6b,7,8,8a,9,10,11,12,12a,12b,13,14,14a,14b-icosahydropicene-2-carbonitrile] | > 200 | 1.8 | ~25 | 2 | 3
2 | CC1(C)CC[C@@]23CC[C@@]4(C)[C@]5(C)CC[C@H]6C(C)(C)C(=O)C(C#N)=C[C@]6(C)[C@H]5CC(=O)[C@]4(OC2CO)[C@@H]3C1 (stereo partly shown) [Compound 63224] | > 200 | 2.5 | ~20 | 4 | 8
3 | CC1(C)CC[C@]2(CNC(=O)C(F)(F)F)CC[C@]3(C)[C@H](C(=O)C[C@@H]4[C@@]5(C)C=C(C#N)C(=O)C(C)(C)[C@@H]5CC[C@]43C)[C@@H]2C1 [Compound 63226, N-(((4aS,6aR,6bR,12aR,14aR,14bS)-11-cyano-2,2,6a,6b,9,9,12a-heptamethyl-10,14-dioxo-1,2,3,4,4a,5,6,6a,6b,7,8,8a,9,10,12a,12b,13,14,14a,14b-icosahydropicen-4a-yl)methyl)-2,2,2-trifluoroacetamide] | > 200 | 2 | ~12 | 4 | 6
4 | CC1(C)CC[C@]2(CNC(=O)OC(C)(C)C)CC[C@]3(C)[C@H](C(=O)CC4[C@@]5(C)C=C(C#N)C(=O)C(C)(C)C5CC[C@]43C)[C@@H]2C1 (stereo partly drawn) [Compound 63253, tert-butyl((4aS,6aR,6bR,12aR,14aR,14bS)-11-cyano-2,2,6a,6b,9,9,12a-heptamethyl-10,14-dioxo-1,2,3,4,4a,5,6,6a,6b,7,8,8a,9,10,12a,12b,13,14,14a,14b-icosahydropicen-4a-yl)methylcarbamate] | ~200 | 1.5 | ~20 | 2 | 3
5 | Cc1cc(CNC[C@]23CCC(C)(C)C[C@H]2[C@H]2C(=O)C[C@@H]4[C@@]5(C)C=C(C#N)C(=O)C(C)(C)[C@@H]5CC[C@@]4(C)[C@]2(C)CC3)no1 [Compound 63232, (4aR,6aR,6bR,8aS,12aS,12bR,14aR,14bR)-4,4,6a,6b,11,11,14b-heptamethyl-8a-(((5-methylisoxazol-3-yl)methylamino)methyl)-3,13-dioxo-3,4,4a,5,6,6a,6b,7,8,8a,9,10,11,12,12a,12b,13,14,14a,14b-icosahydropicene-2-carbonitrile] | > 200 | 3.8 | ~20 | 5 | 13.6
6 | CC1(C)CC[C@]2(CNCC#N)CC[C@]3(C)[C@H](C(=O)C[C@@H]4[C@@]5(C)C=C(C#N)C(=O)C(C)(C)[C@@H]5CC[C@]43C)[C@@H]2C1 [Compound 63218, (4aR,6aR,6bR,8aS,12aS,12bR,14aR,14bR)-8a-((cyanomethylamino)methyl)-4,4,6a,6b,11,11,14b-heptamethyl-3,13-dioxo-3,4,4a,5,6,6a,6b,7,8,8a,9,10,11,12,12a,12b,13,14,14a,14b-icosahydropicene-2-carbonitrile] | > 200 | 3.4 | ~25 | 3 | 10
7 | CC1(C)CC[C@]2(CNS(=O)(=O)CC(F)(F)F)CC[C@]3(C)[C@H](C(=O)C[C@@H]4[C@@]5(C)C=C(C#N)C(=O)C(C)(C)[C@@H]5CC[C@]43C)[C@@H]2C1 [Compound 63225, N-(((4aS,6aR,6bR,8aR,12aR,12bR,14aR,14bS)-11-cyano-2,2,6a,6b,9,9,12a-heptamethyl-10,14-dioxo-1,2,3,4,4a,5,6,6a,6b,7,8,8a,9,10,12a,12b,13,14,14a,14b-icosahydropicen-4a-yl)methyl)-2,2,2-trifluoroethanesulfonamide] | > 200 | 2.4 | ~20 | 4 | 6.5
8 | CC1(C)CC[C@]2(CNS(C)(=O)=O)CC[C@]3(C)[C@H](C(=O)CC4[C@@]5(C)C=C(C#N)C(=O)C(C)(C)C5CC[C@]43C)[C@@H]2C1 (stereo partly drawn) [Compound 63220, N-(((4aS,6aR,6bR,12aR,14aR,14bS)-11-cyano-2,2,6a,6b,9,9,12a-heptamethyl-10,14-dioxo-1,2,3,4,4a,5,6,6a,6b,7,8,8a,9,10,12a,12b,13,14,14a,14b-icosahydropicen-4a-yl)methyl)methanesulfonamide] | > 200 | 2 | ~15 | 3 | 6
9 | COC[C@]12CCC(C)(C)C[C@H]1[C@H]1C(=O)C[C@@H]3[C@@]4(C)C=C(C#N)C(=O)C(C)(C)[C@@H]4CC[C@@]3(C)[C@]1(C)CC2 [Compound 63228, (4aR,6aR,6bR,8aS,12aS,12bR,14aR,14bR)-8a-(methoxymethyl)-4,4,6a,6b,11,11,14b-heptamethyl-3,13-dioxo-3,4,4a,5,6,6a,6b,7,8,8a,9,10,11,12,12a,12b,13,14,14a,14b-icosahydropicene-2-carbonitrile] | 200 | 2 | ~25 | 2 | 4
10 | CC1(C)CC[C@]2([C@@H](O)CO)CC[C@]3(C)[C@H](C(=O)C[C@@H]4[C@@]5(C)C=C(C#N)C(=O)C(C)(C)[C@@H]5CC[C@]43C)[C@@H]2C1 [Compound 63221, (4aR,6aR,6bR,8aS,12aS,12bR,14aR,14bR)-8a-((R)-1,2-dihydroxyethyl)-4,4,6a,6b,11,11,14b-heptamethyl-3,13-dioxo-3,4,4a,5,6,6a,6b,7,8,8a,9,10,11,12,12a,12b,13,14,14a,14b-icosahydropicene-2-carbonitrile] | > 200 | 2 | ~15 | 2 | 4.5
11 | CC1(C)CC[C@]2(CCO)CC[C@]3(C)[C@H](C(=O)C[C@@H]4[C@@]5(C)C=C(C#N)C(=O)C(C)(C)[C@@H]5CC[C@]43C)[C@@H]2C1 [Compound 63231, (4aR,6aR,6bR,8aR,12aS,12bR,14aR,14bR)-8a-(2-hydroxyethyl)-4,4,6a,6b,11,11,14b-heptamethyl-3,13-dioxo-3,4,4a,5,6,6a,6b,7,8,8a,9,10,11,12,12a,12b,13,14,14a,14b-icosahydropicene-2-carbonitrile] | > 200 | 2.1 | ~15 | 1.2 | 5
